The record followed here is PubChem BioAssay (NCI).

Experiment in all cases: NCI tumour cell line growth inhibition, 48 h
The test system of test [1] is MDA-MB-435.
Test [2] relates to SW-620 colon.
Test [3] relates to K-562 leukemia.
For test [4], the system named is HOP-62 NSCLC.
The subject of test [5] is U251 CNS.
Test [6] deals with UACC-257 melanoma.
Test [7] concerns HL-60(TB) leukemia.
The test system of test [8] is NCI/ADR-RES ovarian.
The test system of test [9] is NCI-H23 lung.
The test system of test [10] is 786-0 renal.

Several values for one entry are separate records, joined by “and”; a condition that tells them apart may be missing. Equal entries are not always repeated.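 Briefly, cells in 96-well plates were exposed to five compound concentrations for 48 h, and endpoints were estimated by linear interpolation. GI50: concentration for 50% inhibition of growth. TGI marks complete inhibition of growth.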

In the case of `O=C(NCCN1CCOCC1)Nc1ccc(-c2cc3c(Nc4ccc(Oc5cccc(C(F)(F)F)c5)c(Cl)c4)ncnc3s2)cc1`, the GI50 in test [1] was 0.987 µM; in test [2] it was 1.01 µM; in [3], 0.706 µM; in test [4], 1.46 µM; in [5] it was 0.769 µM; in [6] it was 0.927 µM. Moreover, the GI50 in test [7] is 1.26 µM; in test [8] it was 6.74 µM; in test [9], 1.51 µM; in test [10], 0.67 µM. Also, the TGI in test [1] came out at 2 µM; in test [2], 2.06 µM; in [3], 3.31 µM; in test [4], 5.93 µM; in test [5], 2.43 µM; in [6] it was 1.84 µM. In addition, the TGI in test [7] is 3.37 µM; in test [8], 19.9 µM; in [9], 5.76 µM; in test [10], 1.6 µM.
For the compound `COc1ccc2[nH]c(-c3cccc(N(C)C)c3)cc(=O)c2c1`, the GI50 in test [1] was 0.0444 µM; in test [2], 0.303 µM; in test [3], 0.321 µM; in test [4] it was 0.335 µM and 0.844 µM; in test [5], 0.463 µM; in [6], 0.361 µM. Also, the GI50 is 0.231 µM in [7], 0.487 µM in test [8], 0.664 µM in test [9] and 0.539 µM in [10]. Also, the TGI was 0.213 µM and 0.202 µM in [1]; > 100 µM in test [2]; 17.3 µM in test [3]; 94.2 µM in test [4]; > 100 µM in test [6]; 0.592 µM and 0.569 µM in test [7]. Further, the TGI in [10] was > 100 µM.
Turning to `CCOC(=O)N1C/C(=C/c2ccc(OC)cc2)C(=O)/C(=C/c2ccc(OC)cc2)C1`, the GI50 in [1] was 1.19 µM; in test [2], 1.37 µM; in [3] it was 1.72 µM; in [4], 2.1 µM; in [5] it was 1.74 µM; in test [6] it was 2.88 µM. The GI50 was 3.02 µM in test [7], 3.35 µM in [8], 3.26 µM in test [9] and 1.79 µM in [10]. For the same compound, the TGI in test [1] is 4.71 µM; in test [2] it was 4.4 µM; in test [3], > 100 µM; in test [4], 5.11 µM; in test [5], 3.54 µM; in test [6], 11.4 µM. The TGI in test [7] is > 25.4 µM; in test [8] it was > 100 µM; in test [9] it was 20.2 µM; in [10], 3.4 µM.
For the compound `CCOC(=O)c1c(C)n(CC(C)C)c2c1cc1oc(=O)c(=O)n3cnc2c13`, the GI50 is 9.07 µM in [1]; 1.79 µM in [2]; 16.1 µM in test [3]; 35 µM in test [4]; 10 µM in [5]; 11.3 µM in [6]. Further, the GI50 was 11.5 µM in test [7], 11.6 µM in test [8], 12.3 µM in test [9] and 20.1 µM in [10]. Moreover, the TGI was 16.8 µM in [1]; 10.6 µM in test [2]; > 50 µM in test [3]; > 50 µM in test [4]; 24.1 µM in [5]; 30.5 µM in test [6]. Also, the TGI in test [7] was 36.4 µM; in test [8] it was 38 µM; in [9], 31 µM; in [10] it was > 50 µM.
As to `COc1cc(OC)c(OC)cc1/C=C1\C=Cc2ccccc21`, the TGI in test [1] is 14.5 µM; in test [2] it was 35.4 µM; in [3], > 100 µM; in test [4], 37.5 µM; in test [5], > 100 µM; in test [6], 37.7 µM. Moreover, the TGI in test [7] was 35.2 µM; in test [8], > 100 µM; in test [9], > 100 µM; in [10] it was > 100 µM.
As for `C[C@@]1(c2ncncc2F)NC(=O)c2cc(-c3cn[nH]c3)ccc21`, the GI50 in test [1] was 19.9 µM; in test [2], 6.79 µM; in [3] it was 46.8 µM; in [4], 18.7 µM; in [5], 29.4 µM; in test [6], 30.3 µM. The GI50 was 15.8 µM in [7], 37.9 µM in test [8], 18.7 µM in [9] and 23.6 µM in [10]. The TGI in [1] was > 100 µM; in [2], > 100 µM; in test [3] it was > 100 µM; in test [4], > 100 µM; in [5], > 100 µM; in test [6] it was 98.7 µM. The TGI in [7] is 60.4 µM; in test [8] it was > 100 µM; in [9] it was > 100 µM; in test [10], 91.1 µM.
Consider `CCCCCC(=O)OCC(=O)O[C@@H]1C[C@]2(C(C)C)O[C@@]1(C)[C@@H]1CC[C@@H](C)[C@H]1[C@@H]2OC(=O)/C=C/c1ccccc1`, for which the GI50 in [1] was > 58.2 µM; in test [2], > 40.7 µM; in test [3] it was > 41.3 µM; in [4], > 74.6 µM; in [5], > 53.1 µM; in [6] it was > 55.7 µM. Further, the GI50 in test [7] was > 53.2 µM; in [8] it was 0.291 µM; in test [9], > 52.8 µM; in test [10], 0.789 µM. The TGI in [1] is > 86.4 µM; in [2], > 67.6 µM; in [3], > 100 µM; in test [4] it was > 100 µM; in test [5] it was > 100 µM; in [6], > 89.2 µM. The TGI in test [7] is > 80.3 µM; in test [8], > 70.6 µM; in test [9], > 75.7 µM; in test [10], 13.6 µM.
For `CCCC(=O)NC(c1ccc2c(c1)OCO2)c1ccc2cccnc2c1O` (stereo not given), the GI50 was 3.7 µM in test [1]; 1.2 µM in test [2]; 0.976 µM in [3]; 1.2 µM in test [4]; 1.15 µM in test [5]; 0.317 µM in test [7]. Also, the results for the GI50 in [8], in test [9] and in test [10] were 0.443 µM, 1.78 µM and 1.64 µM, respectively. The TGI in test [1] was > 100 µM; in test [2], > 100 µM; in [3], > 100 µM; in test [4], > 100 µM; in [5], > 100 µM; in [7], 4.76 µM. Also, the TGI in test [8] is 16.6 µM; in test [9] it was > 100 µM; in [10], 14.7 µM.
